Experimental data taken from US20120058499A1, “Bioluminescent Detection of Protease Activity” (priority 2010, published 2012).

Tests used:
Test in all cases: Platform comparison of DUB substrates, signal to background
Format in all cases: biochemical
Details in all cases: DUB 10 nM; signal at 30 minutes; Ub-LUC 100 nM, DUB-Glo substrate 20 μM, Ub-AMC/Ub-rho 250 nM
AMSH = molecular target: T1, AMSH (Homo sapiens, UniProt O95630)
T1 sequence (O95630 1-424): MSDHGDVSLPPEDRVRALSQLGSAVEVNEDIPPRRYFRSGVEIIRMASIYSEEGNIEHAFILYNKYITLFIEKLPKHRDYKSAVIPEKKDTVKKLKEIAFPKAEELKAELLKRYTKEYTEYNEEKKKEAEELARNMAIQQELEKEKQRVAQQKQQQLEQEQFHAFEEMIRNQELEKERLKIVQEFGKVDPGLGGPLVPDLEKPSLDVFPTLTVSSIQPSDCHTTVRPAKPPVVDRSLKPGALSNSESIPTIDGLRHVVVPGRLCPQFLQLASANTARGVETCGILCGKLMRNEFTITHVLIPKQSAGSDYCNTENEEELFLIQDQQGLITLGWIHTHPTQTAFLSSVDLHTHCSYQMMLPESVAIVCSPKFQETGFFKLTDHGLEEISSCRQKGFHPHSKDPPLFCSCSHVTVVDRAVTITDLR
Procedure: (§1) For Ub-AMC and Ub-Rhodamine110, all enzymes were diluted into 50 mM Tris, pH 8.0, 5 mM DTT, 0.05% CHAPS to a final concentration of 10 nM. […] Either Ub-AMC or Ub-Rhodamine110 (final reaction concentration equal to 250 nM) were diluted into 50 mM Tris, pH 8.0, 5 mM DTT, 0.05% (w/v) CHAPS. […] For Ub-Rhodamine110, fluorescence was monitored with filters corresponding to excitation at 485 nm and emission at 531 nm.

JosD1 = JosD1 (Homo sapiens, UniProt Q15040)
Procedure: as §1

JosD2 = molecular target: T2, JosD2 (Homo sapiens, UniProt Q8TAC2)
T2 sequence (Q8TAC2 1-188): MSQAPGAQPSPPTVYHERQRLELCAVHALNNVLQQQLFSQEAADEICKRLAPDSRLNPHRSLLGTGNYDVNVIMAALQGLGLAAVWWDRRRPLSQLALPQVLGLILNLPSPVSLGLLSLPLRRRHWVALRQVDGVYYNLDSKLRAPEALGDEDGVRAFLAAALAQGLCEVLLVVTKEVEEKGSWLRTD
Procedure: as §1

Otub2 = molecular target: T3, Otub2 (Homo sapiens, UniProt Q96DC9)
T3 sequence (Q96DC9 1-234): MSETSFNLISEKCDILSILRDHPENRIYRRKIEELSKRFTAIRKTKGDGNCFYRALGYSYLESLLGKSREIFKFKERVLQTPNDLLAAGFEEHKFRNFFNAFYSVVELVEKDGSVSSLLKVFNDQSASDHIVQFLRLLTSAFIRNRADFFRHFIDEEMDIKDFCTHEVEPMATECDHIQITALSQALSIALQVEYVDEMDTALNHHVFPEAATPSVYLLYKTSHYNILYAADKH
Procedure: as §1

USP20 = USP20 (Homo sapiens, UniProt Q9Y2K6)
Procedure: as §1

USP20, sequence (Q9Y2K6 whole entry, species assumed): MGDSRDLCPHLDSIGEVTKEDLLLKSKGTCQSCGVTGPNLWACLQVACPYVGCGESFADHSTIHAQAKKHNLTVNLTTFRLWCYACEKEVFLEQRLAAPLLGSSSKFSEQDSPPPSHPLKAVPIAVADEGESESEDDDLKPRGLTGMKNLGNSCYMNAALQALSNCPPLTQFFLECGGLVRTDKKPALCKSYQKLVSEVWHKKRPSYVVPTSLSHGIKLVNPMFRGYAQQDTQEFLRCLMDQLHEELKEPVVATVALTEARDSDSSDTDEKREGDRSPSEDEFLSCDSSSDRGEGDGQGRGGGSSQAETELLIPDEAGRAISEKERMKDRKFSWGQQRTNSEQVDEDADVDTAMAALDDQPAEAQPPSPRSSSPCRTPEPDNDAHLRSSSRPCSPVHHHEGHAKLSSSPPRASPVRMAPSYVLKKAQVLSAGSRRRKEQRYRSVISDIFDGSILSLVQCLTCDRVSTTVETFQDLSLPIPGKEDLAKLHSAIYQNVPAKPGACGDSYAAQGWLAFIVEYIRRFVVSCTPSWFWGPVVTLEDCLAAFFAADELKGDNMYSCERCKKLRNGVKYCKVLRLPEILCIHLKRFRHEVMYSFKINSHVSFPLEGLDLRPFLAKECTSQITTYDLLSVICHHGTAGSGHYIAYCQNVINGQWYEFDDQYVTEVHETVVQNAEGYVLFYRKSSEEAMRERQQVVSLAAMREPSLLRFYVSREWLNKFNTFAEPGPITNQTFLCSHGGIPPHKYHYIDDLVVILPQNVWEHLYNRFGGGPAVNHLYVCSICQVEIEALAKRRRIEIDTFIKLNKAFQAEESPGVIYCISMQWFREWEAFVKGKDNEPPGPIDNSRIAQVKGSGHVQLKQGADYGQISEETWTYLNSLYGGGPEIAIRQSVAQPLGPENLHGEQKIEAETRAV

| Substance | Signal to Background value (AMSH) | Signal to Background value (JosD1) | Signal to Background value (JosD2) | Signal to Background value (Otub2) | Signal to Background value (USP20) |
| --- | --- | --- | --- | --- | --- |
| Z-Arg-Leu-Arg-Gly-Gly (SEQ ID NO: 1)-amino-luciferin [DUB-glo ™] | 1.4 | 1.3 | 2.1 | 1.3 | 2.8 |
| Ub(1-76)-aminoluciferin [Ub-LUC] | 16 | 74 | 760 | 980 | 473 |
